The record followed here is article PMC12475007 (2025).

By Kd is commonly meant a measure of binding affinity in units of concentration. Lower therefore signals higher affinity.

Holding throughout (assay): fluorescence bead binding assay
Common to all, as to conditions: binding buffer, room temperature, 1 h; immobilised compound (on beads)

Experiment [1] concerns P1 (DNA, aptamer) TGCGGAGCGAGGCCCTAGGCGTGGTGGCATTGATTTGTAT
Experiment [2] relates to P2 (DNA, aptamer) AGACGTGATGAAGTTCAATCAGGATGCAATGTATTAATGG
For experiment [3], the system named is P3 (DNA, aptamer) CCAAGCATCGTCACATCACATTATCACACATTGTCGTCCGT
Experiment [4] has as its system P4 (DNA, aptamer) TGTGCATTCGTGTGAATTAACTCGTCCACCAGAGCCCGTG
Experiment [5] deals with P5 (DNA, aptamer) ACATGTGTAGGCGGTTGGATGCATTATGAGATGGGACATG
Experiment [6] relates to L1 (DNA, aptamer) CAGTCTGCGCCGATTTCTCGCGGATTGCGACGAGGATACG
Experiment [7] has as its system L2 (DNA, aptamer) CCCATCACCACATTGTCACATCACTCGTCACATACAGCCCG
For experiment [8], the system named is L3 (DNA, aptamer) CACACATACGGGAGAGGCCCCATAAACTCATGCACGTCCTG
Experiment [9] deals with L4 (DNA, aptamer) TAAGCCCGGCTGAGATAACGGTTGATCCGAAGCTGGTTTT

Regarding `CC(=O)O[C@H]1C(=O)[C@@]2(C)[C@H]([C@H](OC(=O)c3ccccc3)[C@]3(O)C[C@H](OC(=O)[C@H](O)[C@@H](NC(=O)c4ccccc4)c4ccccc4)C(C)=C1C3(C)C)[C@]1(OC(C)=O)CO[C@@H]1C[C@@H]2O`, the Kd in experiment [1] is reported as 139.2 nM; in [2] it was 484.2 nM; in experiment [3], 38.02 nM; in experiment [4], 208.1 nM; in [5], 54.07 nM.
On to `Nc1nc(=O)c2c([nH]1)NC[C@@H](CNc1ccc(C(=O)N[C@@H](CCC(=O)O)C(=O)O)cc1)N2C=O`, for which the Kd in [6] is reported as 125.7 nM; in [7], 284.2 nM; in experiment [8], 225.7 nM; in experiment [9], 285.7 nM.
